Source: article PMC6368403, “Identification of a bilirubin receptor that may mediate a component of cholestatic itch” (eLife, 2019)
Values joined by “and” are separate entries in the source; they are usually repeats but may differ in a detail not shown here. Identical values can stand only once.

Legend:
MRGPRA1 = target: T1, MRGPRA1 (Mus musculus, UniProt Q91WW5); experiment: Ca2+ imaging and concentration-Ca2+ response (EC50) in HEK293 cells expressing MRGPRA1; type: cell-based; details: for Calcium response / activation of MRGPRA1-expressing cells: 50 µM bilirubin, 30 µM FMRF; for Ca2+ response (concentration-response curve): MRGPRA1, triplicate wells (Fig 2D)
T1 construct: expressed in transfected cells
T1 sequence (Q91WW5 1-304): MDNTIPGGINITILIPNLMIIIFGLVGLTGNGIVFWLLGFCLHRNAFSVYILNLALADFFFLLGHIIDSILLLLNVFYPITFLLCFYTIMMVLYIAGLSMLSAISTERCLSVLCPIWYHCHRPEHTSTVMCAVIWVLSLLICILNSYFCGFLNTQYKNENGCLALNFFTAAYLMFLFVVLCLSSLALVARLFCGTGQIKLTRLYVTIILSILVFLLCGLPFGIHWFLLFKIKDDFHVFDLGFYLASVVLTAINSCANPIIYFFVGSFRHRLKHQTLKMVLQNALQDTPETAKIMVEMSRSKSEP
Experimental: (§1) All cultured cells were maintained in DMEM supplemented with 10% FBS and 1% Penicillin/Streptomycin at 37°C, 5% CO2. All data included were generated from cells tested for mycoplasma and found to be negative. Cells were imaged in calcium imaging buffer (CIB; 10 mM HEPES, 1.2 mM NaHCO3, 130 mM NaCl, 3 mM KCl, 2.5 mM CaCl2, 0.6 mM MgCl2, 20 mM glucose, and 20 mM sucrose at pH 7.4 and 290–300 mOsm). To monitor changes in intracellular [Ca^2+] ([Ca^2+]i), cells were loaded with either Fura 2-AM (HEK293 cells) or Fluo 4-AM (DRG neurons and mast cells) for 30 min in the dark at 37°C in CIB just prior to imaging. With Fura 2-AM, emission at 510 nm was monitored from excitation at both 340 nm and 380 nm. With Fluo 4-AM, emission at 520 nm was monitored from excitation at 488 nm. Cells were identified as responding if the intracellular [Ca^2+] rose by either 50% compared to baseline or 50% compared to the [Ca^2+]i change assayed during addition of 50 mM KCl (neurons only). Damaged, detached, high-baseline, and motion-activated cells were excluded from analysis.
(§2) In initial screens, HEK293 cells stably expressing the murine G-protein alpha-subunit Gα15, a unique Gα protein that non-selectively couples a large variety of GPCRs to phospholipase C ^30, were plated on poly-D-lysine-coated coverslips and transiently transfected with constructs encoding the MRGRPR of interest. 12–24 hr later, cells were loaded with the Fura 2-AM. Unless otherwise specified, compounds were perfused into the imaging chamber for approximately thirty seconds after a baseline period was established. Response was then monitored at 5 s intervals for an additional 60 s.
(§3) HEK293 cells stably expressing either MRGPRA1, MRGPRX4, and MRGRPC11 were seeded in poly-D-lysine-coated 96-well plates at 10,000 cells/well. Cells were loaded with Fura 2–AM, washed twice, and maintained in CIB. Haem metabolites were freshly dissolved in DMSO in dim light and then diluted into a buffer comprised of 20 mM Tris and 150 mM NaCl at pH 8.8. Potential changes in pH were evaluated prior to each experiment. EC50 values were determined from dose-responses performed in triplicate, repeated 2–4 times. To determine potential antagonism by QWF against bilirubin, cells were treated with varying doses of QWF for 1 min in CIB prior to application of agonist.
(§4) HEK293 stable cell lines expressing GFP-tagged MRGPRA3, MRGPRC11, MRGPRD, MRGPRX1, and MRGPRX2 were generated in previously described reports ([Liu et al., 2009]; [Liu et al., 2012]; [McNeil et al., 2015]). Briefly, plasmids containing the receptor of interest were transfected into HEK cells using Lipofectamine 3000. After 3 days, cells were then selected using 0.5 mg/mL G418. After 3 weeks, monoclonal colonies were established and each the highest expressing clones were identified. For this study, Mrgpra1 and MRGPRX4 were inserted into pEGFP-N1 and transfected into HEK293 cells. MRGPR-positive cells were selected using 0.5 mg/mL G418 for three weeks, after which GFP-positive cells were sorted by FACS and monoclonally expanded. Two lines expressing similar levels of MRGPRA1 and MRGPRX4, as measured by GFP fluorescence, were selected for study.

MRGPRX4 [1] = target: T2, MRGPRX4 (Homo sapiens, UniProt Q96LA9); experiment: Ca2+ imaging and concentration-Ca2+ response (EC50) in HEK293 cells expressing MRGPRX4; type: cell-based; details: for Ca2+ response (concentration-response curve): MRGPRX4, triplicate wells (Fig 2I)
T2 construct: expressed in transfected cells
T2 sequence (Q96LA9 whole entry): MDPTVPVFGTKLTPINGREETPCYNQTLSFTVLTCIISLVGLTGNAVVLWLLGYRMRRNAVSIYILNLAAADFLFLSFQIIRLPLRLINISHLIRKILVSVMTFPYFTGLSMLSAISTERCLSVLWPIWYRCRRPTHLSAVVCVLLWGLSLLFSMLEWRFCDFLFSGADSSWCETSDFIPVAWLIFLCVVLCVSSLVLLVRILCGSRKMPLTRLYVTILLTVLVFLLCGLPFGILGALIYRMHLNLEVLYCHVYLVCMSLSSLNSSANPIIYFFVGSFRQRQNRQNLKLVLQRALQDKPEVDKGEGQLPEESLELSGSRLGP
Experimental: as §1, §2, §3, §4

MRGPRX4 [2] = target: T2, MRGPRX4; experiment: Microscale thermophoresis binding to MRGPRX4; set-up: microscale thermophoresis response (binding isotherm), mean: unit not given here; details: for microscale thermophoresis response (binding isotherm), mean: mean of n=3, Fig 2-J; for Binding to MRGPRX4: microscale thermophoresis
Experimental: Binding isotherms for MRGPRA1, MRGPRX4, and MRGRPC11 towards various ligands were determined by microscale thermophoresis with the NanoTemper monolith NT.115 instrument ([Duhr and Braun, 2006]). Ligands were pre-incubated with 10 µM of the GFP-tagged receptor of interest for 5 min at room temperature in binding buffer (20 mM Tris and 150 mM NaCl at pH 8.8). Receptors were crudely purified as a membrane fraction from cells stably expressing the receptor ([Vasavda et al., 2017]). Haem metabolites were freshly dissolved in 0.1 M NaOH in dim light and then diluted into assay buffer. Lyophilized BAM8-22 was dissolved in binding buffer. The pH of each ligand was evaluated prior to incubation with a receptor. Samples were loaded into NT.115 Hydrophobic-Treated Capillaries from NanoTemper. Microscale thermophoretic experiments were executed using 20% LED power and 15% MST power. KDs were calculated using the law of mass action with data from three independent experiments. Binding between bilirubin and receptors was evaluated purely thermophoretically, whereas binding between BAM8-22 and MRGPRC11 was evaluated by T-Jump. Samples with dramatic deviations in initial fluorescence were excluded.

Row | Compound | Calcium response / activation of MRGPRA1-expressing cells (MRGPRA1) | Calcium response / activation of MRGPRX4-expressing cells (MRGPRX4 [1]) | microscale thermophoresis response (binding isotherm), mean (MRGPRX4 [2]; [Ligand] 3.05e-8 M) | microscale thermophoresis response (binding isotherm), mean (MRGPRX4 [2]; [Ligand] 6.1e-8 M) | microscale thermophoresis response (binding isotherm), mean (MRGPRX4 [2]; [Ligand] 1.221e-7 M) | microscale thermophoresis response (binding isotherm), mean (MRGPRX4 [2]; [Ligand] 2.441e-7 M) | microscale thermophoresis response (binding isotherm), mean (MRGPRX4 [2]; [Ligand] 4.883e-7 M) | microscale thermophoresis response (binding isotherm), mean (MRGPRX4 [2]; [Ligand] 9.766e-7 M) | microscale thermophoresis response (binding isotherm), mean (MRGPRX4 [2]; [Ligand] 1.9531e-6 M) | microscale thermophoresis response (binding isotherm), mean (MRGPRX4 [2]; [Ligand] 3.9063e-6 M) | microscale thermophoresis response (binding isotherm), mean (MRGPRX4 [2]; [Ligand] 7.8125e-6 M) | microscale thermophoresis response (binding isotherm), mean (MRGPRX4 [2]; [Ligand] 1.5625e-5 M) | microscale thermophoresis response (binding isotherm), mean (MRGPRX4 [2]; [Ligand] 3.125e-5 M) | microscale thermophoresis response (binding isotherm), mean (MRGPRX4 [2]; [Ligand] 6.25e-5 M) | microscale thermophoresis response (binding isotherm), mean (MRGPRX4 [2]; [Ligand] 0.000125 M) | microscale thermophoresis response (binding isotherm), mean (MRGPRX4 [2]; [Ligand] 0.00025 M) | microscale thermophoresis response (binding isotherm), mean (MRGPRX4 [2]; [Ligand] 0.0005 M) | Binding to MRGPRX4 (MRGPRX4 [2]) | other results
1 | hemin | failed to activate MRGPRA1 | had no effect | 0 | 0 | 0 | 0 | 0 | 0 | 0 | 0 | 0 | 0 | 0 | 0 | 0 | 0 | 0 | did not bind | –
2 | C=CC1=C(C)/C(=C/c2[nH]c(Cc3[nH]c(/C=C4\NC(=O)C(C)=C4C=C)c(C)c3CCC(=O)NCCS(=O)(=O)O)c(CCC(=O)NCCS(=O)(=O)O)c2C)NC1=O [conjugated bilirubin, bilirubin ditaurate] | activated MRGPRA1-expressing cells | activated MRGPRX4 | 14.6332 | -0.3949 | -3.186 | 10.7277 | 1.18 | 3.799 | 8.125 | 1.993 | 2.933 | -0.662 | 8.64 | 18.6992 | 39.4499 | 46.5687 | 49.0399 | lower affinity than unconjugated bilirubin | Ca2+ response (concentration-response curve) (MRGPRA1; [Ligand] 7.8125e-6 M): 1.221 and 1.276 and 1.273; Ca2+ response (concentration-response curve) (MRGPRA1; [Ligand] 1.5625e-5 M): 1.253 and 1.283 and 1.252; Ca2+ response (concentration-response curve) (MRGPRA1; [Ligand] 3.125e-5 M): 1.222 and 1.225 and 1.221; Ca2+ response (concentration-response curve) (MRGPRA1; [Ligand] 6.25e-5 M): 1.19 and 1.186 and 1.177; Ca2+ response (concentration-response curve) (MRGPRA1; [Ligand] 0.000125 M): 1.212 and 1.254 and 1.214; Ca2+ response (concentration-response curve) (MRGPRA1; [Ligand] 0.00025 M): 1.3325 and 1.3437 and 1.301; Ca2+ response (concentration-response curve) (MRGPRA1; [Ligand] 0.0005 M): 1.4484 and 1.4326 and 1.424; Ca2+ response (concentration-response curve) (MRGPRA1; [Ligand] 0.001 M): 1.572 and 1.554 and 1.499; Ca2+ response (concentration-response curve) (MRGPRX4 [1]; [Ligand] 3.90625e-6 M): 1.434 and 1.4137 and 1.361; Ca2+ response (concentration-response curve) (MRGPRX4 [1]; [Ligand] 7.8125e-6 M): 1.454 and 1.384 and 1.354; Ca2+ response (concentration-response curve) (MRGPRX4 [1]; [Ligand] 1.5625e-5 M): 1.439 and 1.34 and 1.332; Ca2+ response (concentration-response curve) (MRGPRX4 [1]; [Ligand] 3.125e-5 M): 1.623 and 1.449 and 1.378; Ca2+ response (concentration-response curve) (MRGPRX4 [1]; [Ligand] 6.25e-5 M): 1.761 and 1.61 and 1.52; Ca2+ response (concentration-response curve) (MRGPRX4 [1]; [Ligand] 0.000125 M): 1.756 and 1.629 and 1.666; Ca2+ response (concentration-response curve) (MRGPRX4 [1]; [Ligand] 0.00025 M): 1.735 and 1.736 and 1.6528; Ca2+ response (concentration-response curve) (MRGPRX4 [1]; [Ligand] 0.0005 M): 1.775 and 1.779 and 1.74; microscale thermophoresis response (binding isotherm), mean (MRGPRX4 [2]; [Ligand] 0.001 M): 52.0554
